Measurements taken from patent US10653780B2, “Amino lipids and methods for the delivery of nucleic acids” (ARBUTUS BIOPHARMA CORPORATION, priority 2008, dated 2020).
Where two headings read alike, the source gives them in different places.

Tests used:
[1] = test system: Factor VII (FVII)
From the text: It is well established that in vivo RNAi silencing of specific hepatocyte proteins can be achieved following intravenous (i.v.) administration of siRNA's encapsulated in, or associated with, select nanoparticles designed for intracellular delivery. […] In this Example, rational design in combination with in vivo screening were applied to systematically modify the structure of DLinDMA and identify molecular features that enhance or reduce cationic lipid potency. More than 30 lipids were synthesized and incorporated into nucleic acid-lipid particles, i.e., lipid nanoparticles (LN) encapsulating an siRNA (LN-siRNA) targeting Factor VII (FVII), a blood clotting component synthesized and secreted by hepatocytes that is readily measured in serum. LN-siRNA systems were prepared using the same process, lipid molar ratios and particle size to minimize effects on activity resulting from formulation characteristics other than the cationic lipid. Each formulation was administered as a single bolus injection over a range of doses enabling an estimate of the siRNA dose required to reduce FVII serum protein concentrations by 50% after 24 h (ED50).
FVII activity was evaluated in FVII siRNA-treated animals at 24 hours after intravenous (bolus) injection in C57BL/6 mice or 48 hours after intravenous (bolus) injection in SD rats. Six to 8 week old, female C57Bl/6 mice were obtained from Charles River Laboratories and acclimated for one week prior to use in studies. Animals were held in a pathogen-free environment and all procedures involving animals were performed in accordance with the guidelines established by the Canadian Council on Animal Care.
LN-siRNA systems containing Factor VII siRNA were diluted to the appropriate concentrations in sterile phosphate buffered saline immediately prior to use, and the formulations were administered intravenously via the lateral tail vein in a total volume of 10 ml/kg. After 24 h, animals were anaesthetised with Ketamine/Xylazine and blood was collected by cardiac puncture and processed to serum (Microtainer Serum Separator Tubes; Becton Dickinson, Franklin Lakes, N.J., USA). Serum was tested immediately or stored at −70° C. for later analysis for serum Factor VII levels.
FVII was measured using a commercially available kit (Biophen FVII Kit™; Aniara Corp., Mason, Ohio), following the manufacturer's instructions at a microplate scale. FVII reduction was determined against untreated control animals, and the results were expressed as % Residual FVII. Five dose levels (0.1, 0.3, 0.5, 1.0, and 3.0 mg/kg) were typically used.
Serum Factor VII levels were determined using the colorimetric Biophen VII assay kit (Anaira, USA). Briefly, serially diluted pooled control serum (200%-3.125%) and appropriately diluted plasma samples from treated animals were analyzed using the Biophen VII kit according to manufacturer's instructions in 96-well, flat bottom, non-binding polystyrene assay plates (Corning, Corning, N.Y.) and absorbance at 405 nm was measured. A calibration curve was generated using the serial diluted control serum and used to determine levels of Factor VII in serum from treated animals.
Initial studies were performed in eight to 10 week old, female C57BL/6 mice in two stages. In the first stage, the activity associated with the benchmark lipid DLinDMA was compared to the activity associated with modified forms of DLinDMA.

[2] = In situ determination of apparent pKa using TNS fluorescence titration
[3] = Table 8, FVII ED50 of the LN-siRNA system
[4] = Table 3, siRNA dose reducing serum FVII protein by 50% at 24 h, single i.v. bolus, PFV LN-siRNA 40/10/40/10
[5] = siRNA dose reducing serum FVII protein by 50% at 24 h, PFV LN-siRNA 40/10/40/10
[6] = Table 7, siRNA dose reducing serum FVII protein by 50% at 24 h, PFV LN-siRNA 40/10/40/10
[7] = Table 5, siRNA dose reducing serum FVII protein by 50% at 24 h, PFV LN-siRNA 40/10/40/10

## CCCCC/C=C\C/C=C\CCCCCCCCSCC(CN(C)C)SCCCCCCCC/C=C\C/C=C\CCCCC (centres unmarked) [DLin-S-DMA, 1 ,2-Dilinoleylthio-3-dimethylaminopropane]
[1]; Table 4, siRNA dose reducing serum FVII protein by 50% at 24 h, PFV LN-siRNA 40/10/40/10
  ED50: 12 to 25 mg/kg
[1]; [3]
  ED50: 12 to 25 mg/kg

## CCCCC/C=C\C/C=C\CCCCCCCCOCC(CN1CCOCC1)OCCCCCCCC/C=C\C/C=C\CCCCC (centres unmarked) [DLinMA, 1,2-Dilinoleyloxy-3-morpholinopropane]
[1]; [4]
  ED50: 12 to 25 mg/kg
[1]; [3]
  ED50: 12 to 25 mg/kg
[1]; [5]
  ED50: 12 to 25 mg/kg

## CCCCC/C=C\C/C=C\CCCCCCCCOCC(CN1CCN(C)CC1)OCCCCCCCC/C=C\C/C=C\CCCCC (centres unmarked) [DLinMPZ, 1,2-Dilinoleyloxy-3-(N-methylpiperazino) propane]
[1]; [4]
  ED50: 2 to 5 mg/kg
[1]; [3]
  ED50: 2 to 5 mg/kg

## CCCCC/C=C\C/C=C\CCCCCCCCC1(CCCCCCCC/C=C\C/C=C\CCCCC)OCC(CN(C)C)CO1 [DLin-K6-DMA, 2,2-dilinoleyl-5-dimethylaminomethyl-[1,3]-dioxane]
[1]; [6]
  ED50: ~0.3 mg/kg
[1]; Table 11
  FVII ED50: ~0.3 mg/kg
[2]
  pKa: 6.2

## 1,2-Dilinoleyloxy-3-trimethylaminopropane chloride [DLinTMA.Cl]
[1]; [4]
  ED50: 2 to 5 mg/kg

## CCCCC/C=C\C/C=C\CCCCCCCCC1(CCCCCCCC/C=C\C/C=C\CCCCC)OCC(CN(C)C)O1 (stereo not drawn) [DLin-K-DMA (+)]
[1]; [5]
  ED50: ~0.3 mg/kg

## CCCCC/C=C\C/C=C\CCCCCCCCC(CCCCCCCC/C=C\C/C=C\CCCCC)OC(=O)CCN(C)C [DLin-M-DMA, Dilinoleylmethyl 3-Dimethylaminopropionate]
[1]; [6]
  ED50: ~0.7 mg/kg
[1]; [5]
  ED50: ~0.7 mg/kg

## CCCCC/C=C\C/C=C\CCCCCCCCN(CCCCCCCC/C=C\C/C=C\CCCCC)CC(O)CO (centres unmarked) [DLinAP]
[1]; [7]
  ED50: 5 to 12 mg/kg
[1]; [3]
  ED50: 5 to 12 mg/kg
[1]; [5]
  ED50: 5 to 12 mg/kg

## CCCCC/C=C\C/C=C\CCCCCCCC(=O)OCC(C[N+](C)(C)C)OC(=O)CCCCCCC/C=C\C/C=C\CCCCC.[Cl-] (centres unmarked) [DLinTAP.Cl]
[1]; [7]
  ED50: >25 mg/kg

## CCCCCCCCCCCCCCCCCCC1(CCCCCCCCCCCCCCCCCC)OCC(CN(C)C)O1 (centres unmarked) [DS-K-DMA]
[1]; [6]
  ED50: ~8.0 mg/kg
[1]; [5]
  ED50: ~8.0 mg/kg

## CCCCCCCC/C=C\CCCCCCCCOCC(CN(C)C)OCCCCCCCC/C=C\CCCCCCCC (centres unmarked) [DODMA, reference compound]
[1]; [7]
  ED50: 2 to 5 mg/kg
[1]; mouse FVII model
  fold less active than DLinDMA: 2 to 5 fold

## CCCCCCCC/C=C\CCCCCCCC(=O)OCC(C[N+](C)(C)C)OC(=O)CCCCCCC/C=C\CCCCCCCC.[Cl-] (centres unmarked) [DOTAP.Cl, 1,2-Dioleyloxy-3-trimethylaminopropane chloride salt, reference compound]
[1]; [7]
  ED50: >25 mg/kg
